Test results published in patent US6586475B1, “β-amyloid protein production/secretion inhibitors” (Takeda Chemical Industries, Ltd., priority 1998, dated 2003).

System: amyloid-β protein Aβ1-40
Assay: Inhibition of production and/or secretion of Aβ1-40 in IMR-32 cells (EIA of supernatant)
Format: cell-based
Conditions: test compound 10 μM; human neuroblastoma IMR-32 cells, 24 hours; percentage relative to the control
Method: (§1) Compounds of the present invention were tested for an inhibitory activity of the production and/or secretion of amyloid-β protein (references: Science, 264, 1336 (1994) and Biochemistry, 34, 10272 (1995)).
(§2) Human neuroblastoma IMR-32 cells: purchased from American Type Culture Center.
(§3) Standard Aβ1-40 and Aβ1-42: purchased from Bachem Co.
(§4) IMR-32 cells were cultivated in a flask (Falcon, 750 ml) containing 10% FCS/DMEM medium, in an atmosphere of 10% CO2/90% air, at 37° C. to be in confluence. The cultured cells were seeded into a 48-well plate in a density of 2.5×10^5 cells/well, and incubated therein for 3 days under the same conditions as above. Then, the culture medium was removed through suction. […]
(§5) BAN-50 antibody or BNT-77 antibody was used as the primary antibody. […] To determined the Aβ1-42, BC-05 was used as the secondary antibody. […]
(§6) The plate was washed three times with PBS, and 100 μl of an HRP-labeled secondary antibody (BA-27 antibody or BC-o5 antibody labeled with HRP: horseradis peroxidase) as dissolved in a buffer for secondary reaction (20 mM phosphate buffer, pH 7.0; 400 mM NaCl; 2 mM EDTA; 1% BSA) was added thereto. […] Then, using a plate reader (MTP-32 Microplate Reader, by Corona Co.), the sample on the plate was subjected to calorimetric determination (at 450 nm). […]

Row | Compound | Aβ1-40 (%)
1 | O=C(NCCN1CCCCC1)c1ccc(OCc2ccc(-c3ccccc3)cc2)cc1 [Example 8, 4-(4-Biphenylylmethoxy)-N-(2-piperidinoethyl)benzamide] | 39

System: amyloid-β protein Aβ1-42
Assay: Inhibition of production and/or secretion of Aβ1-42 in IMR-32 cells (EIA of supernatant)
Format: cell-based
Conditions: test compound 10 μM; human neuroblastoma IMR-32 cells, 24 hours; percentage relative to the control
Method: as §1, §2, §3, §4, §5, §6

Row | Compound | Aβ1-42 (%)
2 | O=C(NCCN1CCCCC1)c1ccc(OCc2ccc(-c3ccccc3)cc2)cc1 [Example 8, 4-(4-Biphenylylmethoxy)-N-(2-piperidinoethyl)benzamide] | 63

System: not listed separately
Assay: Penetration in brain
Conditions: in vivo

Row | Compound | penetration in brain
3 | O=C(NCCN1CCCCC1)c1ccc(OCc2ccc(-c3ccccc3)cc2)cc1 [Example 8, 4-(4-Biphenylylmethoxy)-N-(2-piperidinoethyl)benzamide] | excellent penetration in brain

System: not given
Assay: not given
Conditions: not given

Row | Compound | melting point
4 | CCCN(CCC)CCc1cccc(OCc2ccc(-c3ccccc3)cc2)c1.Cl | 108 to 110 °C
5 | O=C(NCCN1CCCC1)c1ccc(NC(=O)c2ccc(-c3ccccc3)cc2)cc1 [Example 27] | 241 to 245 °C (dec.)
6 | CCCN(CCC)CCc1cccc(OCc2cccc3ccccc23)c1.Cl | 140 to 142 °C
7 | CCCN(CCC)CCc1ccc(OCc2ccc(Cl)cc2Cl)cc1.Cl | 122 to 123 °C
8 | CCCN(CCC)CCc1ccc(OCc2ccc(-c3ccccc3)cc2)cc1.Cl | 149 to 150 °C
9 | CCCN(CCC)CCc1ccc(OCc2ccc3ccccc3c2)cc1.Cl | 113 to 115 °C
10 | CCCN(CCC)CCc1cccc(OCc2ccc(Cl)cc2Cl)c1.Cl | 76 to 78 °C
11 | CCCN(CCC)CCc1cccc(OCc2ccc3ccccc3c2)c1.Cl | 115 to 116 °C
12 | CCCN(CCC)CCc1ccccc1OCc1ccc2ccccc2c1.Cl | 146 to 147 °C
13 | O=C(NCCN1CCCCC1)c1ccc(NC(=O)c2ccc(-c3ccccc3)cc2)cc1 [Example 26, N-[4-{[2-(Piperidinoethyl)amino]carbonyl}phenyl](4-biphenylyl)carboxamide] | 247 to 252 °C (dec.)
